Read-outs that look alike come from different tables or passages of the source.
What was measured:
HSV-1 [1] = details: Vero cells; ref Lyu et al., 2005; cited from earlier work
[2] = test system: SARS-CoV helicase protein; details: cited from earlier work
[3] = test system: HIV reverse transcriptase; details: ref Pasetto et al., 2014; cited from earlier work
HSV-2 [4] = assay: Cell fusion inhibition assay; assay type: cell-based, Herpes simplex virus type 2; details: 30, 15 μM during 5-7 h p.i.; HSV-2 (MOI = 3.0) infected Vero cells
Vero cells = assay: MTT cytotoxicity assay in Vero cells; assay type: cell-based; details: 50 to 400 μM, 24 h incubation
phosphorylated Akt = assay: Western blot of phosphorylated Akt in HSV-2 infected cells; assay type: cell-based; details: HSV-2 (MOI = 1.0) infected cells, virus control about 12.1
[5] = MTT cytotoxicity assay in Hep-2 cells; assay type: cell-based; details: human, CC50, Hep-2 cells, MTT assay, concentration required to reduce cell viability by 50%
Hep-2 cells = assay: MTT cytotoxicity assay in Hep-2 cells; assay type: cell-based; details: 50 to 400 μM, MTT, 24 h incubation
phosphorylated EGFR = assay: Western blot of phosphorylated EGFR in HSV-2 infected cells; assay type: cell-based; details: HSV-2 (MOI = 1.0) infected cells, virus control about 2.4
HSV-1 gD protein [6] = biological target: T1, HSV-1 gD protein (Human herpesvirus 1, UniProt Q69091); assay: HSV-1 gD binding to Vero cells, cell ELISA; assay type: cell-based, Herpes simplex virus type 1
HSV-1 [7] = assay: Plaque reduction assay, HSV-1; assay type: cell-based, Herpes simplex virus type 1; details: pretreatment of HSV with 1.25-20 μM; Vero cells
HSV-1 (F strain) [8] = assay: Murine intranasal model of HSV pneumonia and encephalitis; assay type: in vivo, BALB/c mice; details: for survival by day 14 post infection: placebo 20%
EGFR/PI3K/Akt pathway [9] = assay: Western blot of phosphorylated EGFR, PI3K and Akt in non-infected Vero cells; assay type: cell-based; details: 2.5, 5, 10, 20 μM for 2 h
HSV-1 (F strain) [10] = assay: Virus yield in culture media by plaque assay, HSV-1; assay type: cell-based, Herpes simplex virus type 1; details: Vero cells; concentration >1.25 μM; 24 h p.i.; p < 0.05
HVEM and nectin-1 = assay: DARTS assay, cellular surface receptors of HSV-1; assay type: binding; details: 60 μM; HSV-1 infected Vero cell lysates
HSV-1 (F strain) [11] = assay: Indirect immunofluorescence assay of ICP27 in HSV-1 infected Vero cells; details: pretreatment of virus with 10 μM before infection
HSV-1 gD protein [12] = biological target: T1, HSV-1 gD protein; assay: DARTS assay, gD; assay type: binding, Herpes simplex virus type 1; details: 60 μM; pronase 3 μg/ml; HSV-1 infected Vero cell lysates
HSV-1 gD protein [13] = biological target: T1, HSV-1 gD protein; assay: Surface plasmon resonance; assay type: binding, Herpes simplex virus type 1
HSV-2 [14] = assay: Time-of-addition assay, HSV-2; details: Vero cells, 24 h p.i.
HSV-2 gD mRNA = assay: Real-time RT-PCR of gD mRNA, HSV-2 infected Vero cells; assay type: cell-based, Herpes simplex virus type 2; details: 5, 10, 20 μM; HSV-2 (MOI = 1.0) infected Vero cells, 8 h; p < 0.05
[15] = test system: EGFR, PI3K and Akt proteins; assay: Western blot of total EGFR, PI3K and Akt in HSV-2 infected Vero cells; assay type: cell-based; details: 2.5, 5, 10, 20 μM for 2 h
HSV-1 gD mRNA = assay: Real-time RT-PCR of gD mRNA, HSV-1 infected Vero cells; assay type: cell-based, Herpes simplex virus type 1; details: 5, 10, 20 μM; HSV-1 (MOI = 1.0) infected Vero cells, 8 h; p < 0.05
HSV-2 [16] = assay: Plaque reduction assay, HSV-2; assay type: cell-based, Herpes simplex virus type 2; details: pretreatment of HSV with 1.25-20 μM; Vero cells
HSV-2 (333 strain) [17] = assay: Virus yield in culture media by plaque assay, HSV-2; assay type: cell-based, Herpes simplex virus type 2; details: Vero cells; concentration >1.25 μM; 24 h p.i.; p < 0.05
HSV-1 [18] = assay: Time-of-addition assay, HSV-1; details: Vero cells, 24 h p.i.
phosphorylated PI3K = assay: Western blot of phosphorylated PI3K in HSV-2 infected cells; assay type: cell-based; details: HSV-2 (MOI = 1.0) infected cells, virus control about 1.9
gD protein = assay: Western blot of virus gD expression during 5-7 h p.i.; assay type: cell-based, Herpes simplex virus type 2; details: treatment during 5-7 h p.i.
[19] = test system: gB, gC, and gH/gL proteins; assay: DARTS assay, other virus surface glycoproteins; assay type: binding, Herpes simplex virus type 1; details: 60 μM; HSV-1 infected Vero cell lysates
EGFR/PI3K/Akt pathway [20] = assay type: cell-based; details: 5, 10, 20 μM; Vero cells treated with HSV-1 gD protein (2 μg/ml); vs gD treated control, p < 0.05
[21] = MTT cytotoxicity assay in HeLa cells; assay type: cell-based; details: human, CC50, HeLa cells, MTT assay, concentration required to reduce cell viability by 50%
HeLa cells = assay: MTT cytotoxicity assay in HeLa cells; assay type: cell-based; details: 50 to 400 μM, MTT, 24 h incubation
HSV-2 (333 strain) [22] = assay: CPE inhibition assay, HSV-2; details: for IC50: read-out: HSV-2 IC50
HSV-1 (F strain) [23] = assay: CPE inhibition assay, HSV-1; details: for IC50: read-out: HSV-1 IC50
[24] = 20 μM for 1 h before infection, p < 0.01
[25] = 10 mg·kg-1 intraperitoneal, day 4 p.i.

T1 sequence (Q69091 26-394): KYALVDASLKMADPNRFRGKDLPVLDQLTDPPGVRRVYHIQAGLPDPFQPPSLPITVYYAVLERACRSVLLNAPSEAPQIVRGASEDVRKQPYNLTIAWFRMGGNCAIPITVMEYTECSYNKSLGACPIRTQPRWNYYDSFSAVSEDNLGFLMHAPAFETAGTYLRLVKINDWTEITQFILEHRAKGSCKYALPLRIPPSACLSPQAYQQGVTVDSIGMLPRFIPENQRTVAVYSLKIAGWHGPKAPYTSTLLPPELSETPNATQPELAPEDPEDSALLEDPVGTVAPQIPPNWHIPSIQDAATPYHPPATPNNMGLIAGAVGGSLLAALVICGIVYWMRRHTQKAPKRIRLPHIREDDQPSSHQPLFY

O=c1c(O)c(-c2ccc(O)c(O)c2)oc2cc(O)cc(O)c12 [quercetinin, reference compound]
inhibitory effects against HSV-1 (HSV-1 [1]): moderate inhibitory effects

O=c1cc(-c2ccc(O)cc2)oc2cc(O)c(O)c(O)c12 [scutellarein, reference compound]
inhibition of SARS-CoV helicase protein [2]: potently inhibited

O=c1c(O)c(-c2cc(O)c(O)c(O)c2)oc2cc(O)cc(O)c12 [Myricetin, 3,5,7-trihydroxy-2-(3,4,5-trihydroxyphenyl)-4-benzopyrone]
activity of HIV reverse transcriptase [3]: inhibited the activity of HIV reverse transcriptase | syncytium formation (HSV-2 [4]): markedly blocked syncytium formation | cytotoxicity (Vero cells): no significant cytotoxicity | activation of Akt (p-Akt) (phosphorylated Akt; 5 μM for 2 h): about 3.9 fold of normal control group | activation of Akt (p-Akt) (phosphorylated Akt; 10 μM for 2 h): ~2.5 fold of normal control group | activation of Akt (p-Akt) (phosphorylated Akt; 20 μM for 2 h): ~1.2 fold of normal control group | inhibitory effects against HSV-1 (HSV-1 [1]): moderate inhibitory effects | CC50 at 24 h [5]: ~965 µM | cytotoxicity (Hep-2 cells): no significant cytotoxicity | level of phosphorylated EGFR (phosphorylated EGFR; 10 μM for 2 h): about 1.4 fold of normal control group | level of phosphorylated EGFR (phosphorylated EGFR; 20 μM for 2 h): ~0.8 fold of normal control group | binding of gD to cell surface, pre-incubation of gD protein (HSV-1 gD protein [6]; 5, 10, 20, 40 μM, gD protein 2 μg/mL, dose-dependent): significantly reduced the binding of gD to cell surface | amount of gD protein on cell surface, pretreatment of cells (HSV-1 gD protein [6]; 40, 20, 10, 5 μM for 1 h): did not significantly decrease the amount of gD protein on cell surface | number of plaques (HSV-1 [7]): significantly reduced the number of plaques | brain histopathology (HE staining) (HSV-1 (F strain) [8]; 2.5 mg·kg-1, day 4 p.i., comparable to acyclovir (10 mg·kg-1)): only had tiny hyperaemia | brain histopathology (HE staining) (HSV-1 (F strain) [8]; 5 mg·kg-1, day 4 p.i.): nearly had no hyperaemia and infiltration of inflammatory cells | lung histopathology (HE staining) (HSV-1 (F strain) [8]; 2.5 or 5 mg·kg-1, day 4 p.i.): intact columnar epithelium | survival by day 14 post infection (HSV-1 (F strain) [8]; 2.5 or 5 mg·kg-1 intraperitoneal once daily for five days): 100% | body weight loss during the infection (HSV-1 (F strain) [8]; 2.5 or 5 mg·kg-1 intraperitoneal once daily for five days, placebo up to 19%): less than 5% | survival rates compared to placebo-treated control group (HSV-1 (F strain) [8]; 2.5 or 5 mg·kg-1 intraperitoneal, p < 0.01): significantly increased survival rates | pulmonary virus titers (HSV-1 (F strain) [8]; myricetin 2.5 or 5 mg·kg-1 intraperitoneal, day 4 p.i., plaque assay, p < 0.05): significantly decreased | activation of EGFR, PI3K and Akt proteins (EGFR/PI3K/Akt pathway [9]): could not significantly influence the activation | virus titers in culture media (HSV-1 (F strain) [10]): significantly reduced the virus titers | protection of HVEM and nectin-1 from protease digestion (HVEM and nectin-1): could also not be protected | expression of ICP27 (HSV-1 (F strain) [11]): significantly reduced the expression of ICP27 | protection of gD protein from protease digestion (HSV-1 gD protein [12]): obviously protected | Kd (HSV-1 gD protein [13]): ~0.0609 µM | virus titers, pretreatment of virus (HSV-2 [14]; [24]): significantly reduced the virus titers | virus titers, pretreatment of cells (HSV-2 [14]; 20 μM): did not significantly reduce virus titers | virus multiplication, treatment after adsorption (HSV-2 [14]; 20 μM, p < 0.05): obvious inhibition on virus multiplication | expression level of gD mRNA (HSV-2 gD mRNA): significantly reduced the expression level of gD mRNA | inhibition of SARS-CoV helicase protein [2]: potently inhibited | total expression levels of EGFR, PI3K and Akt proteins [15]: did not significantly influence the total expression levels | expression level of gD mRNA (HSV-1 gD mRNA): significantly reduced the expression level of gD mRNA | number of plaques (HSV-2 [16]): significantly reduced the number of plaques | virus titers in culture media (HSV-2 (333 strain) [17]): significantly reduced the virus titers | virus titers, pretreatment of virus (HSV-1 [18]; [24]): significantly reduced the virus titers | virus titers, pretreatment of cells (HSV-1 [18]; 20 μM): did not significantly reduce virus titers | virus multiplication, treatment after adsorption (HSV-1 [18]; 20 μM, p < 0.05): obvious inhibition on virus multiplication | level of phosphorylated PI3K (phosphorylated PI3K; 5 μM for 2 h): about 1.4 fold of normal control group | level of phosphorylated PI3K (phosphorylated PI3K; 10 μM for 2 h): about 1.4 fold of normal control group | level of phosphorylated PI3K (phosphorylated PI3K; 20 μM for 2 h): ~0.8 fold of normal control group | expression of virus surface glycoproteins such as gD protein (gD protein): did not obviously influence the expression | protection of gB, gC, and gH/gL proteins from protease digestion [19]: could not protect | levels of phosphorylated EGFR, PI3K, and Akt proteins (EGFR/PI3K/Akt pathway [20]): significantly reduced | CC50 at 24 h [21]: ~1150 µM | cytotoxicity (HeLa cells): no significant cytotoxicity

Nc1nc2c(ncn2COCCO)c(=O)[nH]1 [Acyclovir]
CC50 at 24 h [5]: 898 ± 72.6 µM | HSV-2 SI (CC50/IC50) (HSV-2 (333 strain) [22]; HeLa cells): 37.9 | HSV-2 SI (CC50/IC50) (HSV-2 (333 strain) [22]; Hep-2 cells): 31.5 | IC50 (HSV-2 (333 strain) [22]; Human alphaherpesvirus 2, HEp-2, 24 h): 28.5 ± 4.3 µM | IC50 (HSV-2 (333 strain) [22]; Human alphaherpesvirus 2, HeLa, 24 h): 21.9 ± 3.2 µM | IC50 (HSV-2 (333 strain) [22]; Human alphaherpesvirus 2, Vero, 24 h): 11.6 ± 2.5 µM | HSV-2 SI (CC50/IC50) (HSV-2 (333 strain) [22]; Vero cells): 84.1 | survival by day 14 post infection (HSV-1 (F strain) [8]; 10 mg·kg-1 intraperitoneal once daily for five days): 90% | virus titers in lungs (HSV-1 (F strain) [8]; [25]): significant reduction of virus titers | virus titers in spinal cord (HSV-1 (F strain) [8]; [25]): significant reduction of virus titers | HSV-1 SI (CC50/IC50) (HSV-1 (F strain) [23]; HeLa cells): 75.5 | HSV-1 SI (CC50/IC50) (HSV-1 (F strain) [23]; Hep-2 cells): 46.5 | IC50 (HSV-1 (F strain) [23]; Human alphaherpesvirus 1, HEp-2, 24 h): 19.3 ± 2.2 µM | IC50 (HSV-1 (F strain) [23]; Human alphaherpesvirus 1, HeLa, 24 h): 11 ± 1.2 µM | IC50 (HSV-1 (F strain) [23]; Human alphaherpesvirus 1, Vero, 24 h): 7.4 ± 0.6 µM | HSV-1 SI (CC50/IC50) (HSV-1 (F strain) [23]; Vero cells): 131.8 | CC50 at 24 h [21]: 830 ± 40 µM

From publication PMC7111628 (Antiviral Research, 2020)
